# According to publication PMC5943542, “Targeting LMW‐PTP to sensitize melanoma cancer cells toward chemo‐ and radiotherapy” (Cancer Medicine, 2018):
# Target: T1, LMW-PTP (recombinant isoforms IF-A and IF-B) (Homo sapiens, UniProt P24666)
# T1 construct: gene ACP1; purified recombinant human LMW-PTP, isoform A (IF-A) and isoform B (IF-B)
# T1 sequence (P24666 2-158): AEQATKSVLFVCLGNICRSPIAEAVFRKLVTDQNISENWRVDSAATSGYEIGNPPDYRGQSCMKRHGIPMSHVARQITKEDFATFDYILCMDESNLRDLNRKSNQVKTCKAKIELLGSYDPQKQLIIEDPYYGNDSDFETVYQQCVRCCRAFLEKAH
# Test: p-nitrophenylphosphate hydrolysis kinetics with purified recombinant enzyme, double reciprocal plots
# Type: biochemical
structure (smiles),measurement,value
O=c1c(O)c(-c2ccc(O)cc2O)oc2cc(O)cc(O)c12 [Morin],Ki,micromolar range
